Data reported in patent US20260325533A1, “CDK INHIBITOR COMPOUNDS” (ALEKSIA THERAPEUTICS, INC., priority 2023, published 2026).
pIC50: −log10 of the molar value. Like-named read-outs stand apart in the source and are kept apart here.

What was measured:
Type in all cases: biochemical
[1] = molecular target: CDK2/CCNE1 (Homo sapiens, UniProt P24941); assay: CDK2 homogeneous time-resolved fluorescence (HTRF) kinase assay; details: CDK2/CCNE
How it was run: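 IC50 derived from 11-point, half-log dilutions (usually top 10 μM) of compound, 1% DMSO. Kinase (3 nM CDK2/CCNE1) was preincubated with compound 20 min, then phosphorylated 50 nM ULight-4E-BP1 peptide at 1 mM ATP for 60 min, 23 °C. Europium-antibody TR-FRET read after EDTA stop.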

[2] = molecular target: CDK1/CCNB1 (Homo sapiens, UniProt P06493); assay: CDK1 homogeneous time-resolved fluorescence (HTRF) kinase assay; details: CDK1/CCNB
How it was run: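 HTRF assay with 0.5 nM CDK1/CCNB1, 1 mM ATP, 50 nM ULight-eIF4E-BP1 (Thr37/46) peptide; compound preincubated 20 min, reaction 60 min at 23 °C, EDTA stop, Eu-anti-phospho antibody detection. 11-point half-log titration from 10 μM, 1% DMSO; IC50 from 665 nm or 665/615 signal.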

[3] = molecular target: CDK4/CCND3 (Homo sapiens, UniProt P11802); assay: CDK4 homogeneous time-resolved fluorescence (HTRF) kinase assay; details: CDK4/CCND; x = IC50 >250 nM; read-out: CDK4/CCND IC50 (>250 nM column)
How it was run: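 IC50 values were derived from 11-point half-log dilutions, usually starting at 10 μM. Compound was first held for 20 min at 23 °C with 1.5 nM CDK4/CCND3. 1 mM ATP and 50 nM ULight-eIF4E-BP1 (Thr37/46) substrate were then added for 60 min, and the TR-FRET 665 nm signal was measured after EDTA stop and Eu-anti-phospho-4E-BP1 detection.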

[4] = molecular target: CDK6/CCND1 (Homo sapiens, UniProt Q00534); assay: CDK6 homogeneous time-resolved fluorescence (HTRF) kinase assay; details: CDK6/CCND; x = IC50 >250 nM; read-out: CDK6/CCND IC50 (>250 nM column)
How it was run: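 Recombinant CDK6/CCND1 (1 nM final) was preincubated with compound for 20 min at 23 °C in HEPES buffer with MgCl2, EGTA, DTT and Tween 20. Kinase reaction then ran 60 min at 23 °C with 1 mM ATP and 50 nM ULight-4E-BP1 (Thr37/46) peptide, and was stopped with EDTA.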

[5] = x = IC50 <25 nM, read-out: CDK2/CCNE IC50 (<25 nM)
[6] = x = IC50 >250 nM, read-out: CDK1/CCNB IC50 (>250 nM column)
[7] = x = IC50 25-250 nM, read-out: CDK1/CCNB IC50 (25-250 nM)

Chain of CDK1/CCNB1 (P06493 whole entry): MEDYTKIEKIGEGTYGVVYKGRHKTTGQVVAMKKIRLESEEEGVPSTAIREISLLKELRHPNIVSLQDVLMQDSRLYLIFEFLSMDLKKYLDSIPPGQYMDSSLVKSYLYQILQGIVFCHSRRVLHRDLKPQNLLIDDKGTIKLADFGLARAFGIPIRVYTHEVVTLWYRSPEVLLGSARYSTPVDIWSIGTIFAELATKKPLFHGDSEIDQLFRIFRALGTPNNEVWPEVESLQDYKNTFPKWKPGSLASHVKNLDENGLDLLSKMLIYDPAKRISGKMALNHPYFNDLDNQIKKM
Chain of CDK1/CCNB1 (P14635 whole entry partner): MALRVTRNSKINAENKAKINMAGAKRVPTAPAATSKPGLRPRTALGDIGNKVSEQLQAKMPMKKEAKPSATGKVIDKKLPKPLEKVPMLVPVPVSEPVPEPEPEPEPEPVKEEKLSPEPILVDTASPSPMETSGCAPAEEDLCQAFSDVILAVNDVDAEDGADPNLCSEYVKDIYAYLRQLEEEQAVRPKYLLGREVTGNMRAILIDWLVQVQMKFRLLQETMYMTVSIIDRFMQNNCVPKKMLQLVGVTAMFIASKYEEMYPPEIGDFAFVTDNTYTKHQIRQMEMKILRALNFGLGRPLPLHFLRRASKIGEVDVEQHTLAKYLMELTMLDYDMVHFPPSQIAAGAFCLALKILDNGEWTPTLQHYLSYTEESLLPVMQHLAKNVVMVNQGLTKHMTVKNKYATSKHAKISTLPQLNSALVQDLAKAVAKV
Chain of CDK4/CCND3 (P11802 whole entry): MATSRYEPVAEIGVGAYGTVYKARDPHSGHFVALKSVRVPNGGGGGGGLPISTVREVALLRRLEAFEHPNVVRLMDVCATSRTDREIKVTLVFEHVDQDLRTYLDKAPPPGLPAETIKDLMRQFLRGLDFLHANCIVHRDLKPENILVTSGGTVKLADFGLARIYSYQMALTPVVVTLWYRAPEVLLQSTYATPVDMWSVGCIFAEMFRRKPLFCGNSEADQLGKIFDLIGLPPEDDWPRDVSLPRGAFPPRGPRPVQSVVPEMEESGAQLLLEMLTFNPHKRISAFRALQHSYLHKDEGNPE
Chain of CDK4/CCND3 (P30281 whole entry partner): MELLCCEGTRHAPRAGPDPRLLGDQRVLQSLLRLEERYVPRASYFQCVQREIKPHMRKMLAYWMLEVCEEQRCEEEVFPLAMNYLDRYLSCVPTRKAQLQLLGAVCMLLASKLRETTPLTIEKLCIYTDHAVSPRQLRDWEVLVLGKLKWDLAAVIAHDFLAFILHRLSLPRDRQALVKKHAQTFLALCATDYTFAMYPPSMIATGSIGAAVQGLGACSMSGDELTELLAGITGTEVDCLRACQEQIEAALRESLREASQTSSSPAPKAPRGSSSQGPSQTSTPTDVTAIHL
Chain of CDK6/CCND1 (Q00534 whole entry): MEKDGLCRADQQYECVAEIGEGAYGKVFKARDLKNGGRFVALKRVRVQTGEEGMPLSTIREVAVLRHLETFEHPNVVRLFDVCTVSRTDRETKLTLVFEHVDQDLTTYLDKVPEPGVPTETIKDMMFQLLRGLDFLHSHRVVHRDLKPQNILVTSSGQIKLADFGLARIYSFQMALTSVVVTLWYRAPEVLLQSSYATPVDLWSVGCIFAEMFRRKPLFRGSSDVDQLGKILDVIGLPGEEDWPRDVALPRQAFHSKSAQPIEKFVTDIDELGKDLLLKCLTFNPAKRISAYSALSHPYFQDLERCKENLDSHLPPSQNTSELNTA
Chain of CDK6/CCND1 (P24385 whole entry partner): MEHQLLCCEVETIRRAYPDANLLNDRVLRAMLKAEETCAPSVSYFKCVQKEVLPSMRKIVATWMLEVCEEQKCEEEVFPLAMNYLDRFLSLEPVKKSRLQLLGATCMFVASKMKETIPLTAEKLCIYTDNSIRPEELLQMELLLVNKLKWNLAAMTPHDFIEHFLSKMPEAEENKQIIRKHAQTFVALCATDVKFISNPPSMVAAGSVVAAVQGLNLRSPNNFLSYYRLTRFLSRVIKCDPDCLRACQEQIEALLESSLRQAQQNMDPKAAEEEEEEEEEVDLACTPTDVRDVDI

| Structure (SMILES) | pIC50 [1, 5] | pIC50 [2, 6] | pIC50 [3] | pIC50 [4] | pIC50 ([1]; x = IC50 >250 nM, read-out: CDK2/CCNE IC50 (>250 nM column)) | pIC50 [2, 7] |
| --- | --- | --- | --- | --- | --- | --- |
| Cc1cc(S(C)(=O)=O)ccc1Nc1cc2c(C#Cc3ccc4c(c3)NC(=O)C43CC3)nccc2cn1 [Ex 351, 6'-((7-((2-methyl-4-(methylsulfonyl)phenyl)amino)-2,6-naphthyridin-1-yl)ethynyl)spiro[cyclopropane-1,3'-indolin]-2'-one] | > 7.60 | < 6.60 | < 6.60 | < 6.60 |  |  |
| CC1(C)C(=O)Nc2cc(C#Cc3nccc4cnc(Nc5ccc(S(C)(=O)=O)cc5C(F)(F)F)cc34)ccc21 [Ex 352, 3,3-dimethyl-6-((7-((4-(methylsulfonyl)-2-(trifluoromethyl)phenyl)amino)-2,6-naphthyridin-1-yl)ethynyl)indolin-2-one] |  | < 6.60 | < 6.60 | < 6.60 | < 6.60 |  |
| CCS(=O)(=O)c1ccc(Nc2cc3c(C#Cc4ccc5c(c4)NC(=O)C54CC4)nccc3cn2)c(C)c1 [Ex 356, 6'-((7-((4-(ethylsulfonyl)-2-methylphenyl)amino)-2,6-naphthyridin-1-yl)ethynyl)spiro[cyclopropane-1,3'-indolin]-2'-one] | > 7.60 |  | < 6.60 | < 6.60 |  | 6.60 to 7.60 |
| CCS(=O)(=O)c1ccc(Nc2cc3c(C#Cc4ccc5c(c4)NC(=O)C54CC4)nccc3cn2)c(OC)c1 [Ex 357, 6'-((7-((4-(ethylsulfonyl)-2-methoxyphenyl)amino)-2,6-naphthyridin-1-yl)ethynyl)spiro[cyclopropane-1,3'-indolin]-2'-one] | > 7.60 | < 6.60 | < 6.60 | < 6.60 |  |  |
| CCC1(CC)C(=O)Nc2cc(C#Cc3nccc4cnc(Nc5ccc(S(=O)(=O)C(C)C)cc5C)cc34)ccc21 [Ex 369, 3,3-diethyl-6-((7-((4-(isopropylsulfonyl)-2-methylphenyl)amino)-2,6-naphthyridin-1-yl)ethynyl)indolin-2-one] | > 7.60 | < 6.60 | < 6.60 | < 6.60 |  |  |
| CCC1(CC)C(=O)Nc2cc(C#Cc3nccc4cnc(Nc5ccc(S(=O)(=O)CC)cc5C)cc34)ccc21 [Ex 370, 3,3-diethyl-6-((7-((4-(ethylsulfonyl)-2-methylphenyl)amino)-2,6-naphthyridin-1-yl)ethynyl)indolin-2-one] | > 7.60 | < 6.60 | < 6.60 | < 6.60 |  |  |
| CCC1(CC)C(=O)Nc2cc(C#Cc3nccc4cnc(Nc5ccc(S(=O)(=O)CC)cc5OC)cc34)ccc21 [Ex 371, 3,3-diethyl-6-((7-((4-(ethylsulfonyl)-2-methoxyphenyl)amino)-2,6-naphthyridin-1-yl)ethynyl)indolin-2-one] | > 7.60 | < 6.60 | < 6.60 | < 6.60 |  |  |
| COc1cc(S(C)(=O)=O)ccc1Nc1cc2c(C#Cc3ccc4c(c3)NC(=O)C43CC3)nccc2cn1 [Ex 375, 6'-((7-((2-methoxy-4-(methylsulfonyl)phenyl)amino)-2,6-naphthyridin-1-yl)ethynyl)spiro[cyclopropane-1,3'-indolin]-2'-one] | > 7.60 | < 6.60 | < 6.60 | < 6.60 |  |  |
| CC1(C)C(=O)Nc2cc(C#Cc3nccc4cnc(Nc5ccc(S(C)(=O)=O)c(O)c5)cc34)ccc21 [Ex 379, 6-((7-((3-hydroxy-4-(methylsulfonyl)phenyl)amino)-2,6-naphthyridin-1-yl)ethynyl)-3,3-dimethylindolin-2-one] | > 7.60 | < 6.60 | < 6.60 | < 6.60 |  |  |
| CC1(C)C(=O)Nc2cc(C#Cc3nccc4cnc(Nc5ccc(S(C)(=O)=O)cc5O)cc34)ccc21 [Ex 380, 6-((7-((2-hydroxy-4-(methylsulfonyl)phenyl)amino)-2,6-naphthyridin-1-yl)ethynyl)-3,3-dimethylindolin-2-one] | > 7.60 | < 6.60 | < 6.60 | < 6.60 |  |  |
| CCC1(CC)C(=O)Nc2cc(C#Cc3nccc4cnc(Nc5ccc(S(C)(=O)=O)cc5OC)cc34)ccc21 [Ex 396, 3,3-diethyl-6-((7-((2-methoxy-4-(methylsulfonyl)phenyl)amino)-2,6-naphthyridin-1-yl)ethynyl)indolin-2-one] | > 7.60 | < 6.60 | < 6.60 | < 6.60 |  |  |

Other lines, results leading:

| pIC50 [1, 5] | pIC50 [2, 6] | pIC50 [3] | pIC50 [4] | pIC50 ([1]; x = IC50 >250 nM, read-out: CDK2/CCNE IC50 (>250 nM column)) | pIC50 [2, 7] | Structure (SMILES) |
| --- | --- | --- | --- | --- | --- | --- |
| > 7.60 | < 6.60 | < 6.60 | < 6.60 |  |  | COc1cc(S(C)(=O)=O)ccc1Nc1cc2c(C#Cc3ccc4c(c3)NC(=O)C43CCC3)nccc2cn1 [Ex 361, 6'-((7-((2-methoxy-4-(methylsulfonyl)phenyl)amino)-2,6-naphthyridin-1-yl)ethynyl)spiro[cyclobutane-1,3'-indolin]-2'-one] |
| > 7.60 | < 6.60 | < 6.60 | < 6.60 |  |  | Cc1cc(S(C)(=O)=O)ccc1Nc1cc2c(C#Cc3ccc4c(c3)NC(=O)C43CCC3)nccc2cn1 [Ex 381, 6'-((7-((2-methyl-4-(methylsulfonyl)phenyl)amino)-2,6-naphthyridin-1-yl)ethynyl)spiro[cyclobutane-1,3'-indolin]-2'-one] |
| > 7.60 |  | < 6.60 | < 6.60 |  | 6.60 to 7.60 | O=C1Nc2cc(C#Cc3nccc4cnc(Nc5ccc(S(=O)(=O)C6CC6)cc5)cc34)ccc2C12CCC2 [Ex 385, 6'-((7-((4-(cyclopropylsulfonyl)phenyl)amino)-2,6-naphthyridin-1-yl)ethynyl)spiro[cyclobutane-1,3'-indolin]-2'-one] |
| > 7.60 | < 6.60 | < 6.60 | < 6.60 |  |  | CC(C)S(=O)(=O)c1ccc(Nc2cc3c(C#Cc4ccc5c(c4)NC(=O)C54CCC4)nccc3cn2)cc1 [Ex 386, 6'-((7-((4-(isopropylsulfonyl)phenyl)amino)-2,6-naphthyridin-1-yl)ethynyl)spiro[cyclobutane-1,3'-indolin]-2'-one] |
| > 7.60 |  | < 6.60 | < 6.60 |  | 6.60 to 7.60 | O=C1Nc2cc(C#Cc3nccc4cnc(Nc5ccc(S(=O)(=O)C6CCC6)cc5)cc34)ccc2C12CCC2 [Ex 387, 6'-((7-((4-(cyclobutylsulfonyl)phenyl)amino)-2,6-naphthyridin-1-yl)ethynyl)spiro[cyclobutane-1,3'-indolin]-2'-one] |
| > 7.60 |  | < 6.60 | < 6.60 |  | 6.60 to 7.60 | O=C1Nc2cc(C#Cc3nccc4cnc(Nc5ccc(S(=O)(=O)C6CC6)cc5)cc34)ccc2C12CC2 [Ex 392, 6'-((7-((4-(cyclopropylsulfonyl)phenyl)amino)-2,6-naphthyridin-1-yl)ethynyl)spiro[cyclopropane-1,3'-indolin]-2'-one] |
| > 7.60 |  | < 6.60 | < 6.60 |  | 6.60 to 7.60 | CC(C)S(=O)(=O)c1ccc(Nc2cc3c(C#Cc4ccc5c(c4)NC(=O)C54CC4)nccc3cn2)cc1 [Ex 393, 6'-((7-((4-(isopropylsulfonyl)phenyl)amino)-2,6-naphthyridin-1-yl)ethynyl)spiro[cyclopropane-1,3'-indolin]-2'-one] |
| > 7.60 |  | < 6.60 | < 6.60 |  | 6.60 to 7.60 | O=C1Nc2cc(C#Cc3nccc4cnc(Nc5ccc(S(=O)(=O)C6CCC6)cc5)cc34)ccc2C12CC2 [Ex 394, 6'-((7-((4-(cyclobutylsulfonyl)phenyl)amino)-2,6-naphthyridin-1-yl)ethynyl)spiro[cyclopropane-1,3'-indolin]-2'-one] |
